Assay results from patent publication US9498412B2, “Method for producing microcapsules with a sun protection effect” (Greenjoy Biotech Co., Ltd., priority 2014, dated 2016).
Where two headings read alike, the source gives them in different places.

Type: in vitro ADME
Details: Landrace, pig, 3 % in mineral oil
Protocol: 5. In Vitro Transdermal Delivery Analysis:
(1) Preparing penetration membranes from a swine skin: An ear skin of a 6-month-old Landrace pig was prepared and cleaned with deionized water. The upper skin of the pig ear was cut by a scalpel to remove the fat layer. Then, the pig ear was cut into a plurality of penetration membranes each having an area of 1.5×1.5 cm^2 and each having a thickness of 605 μm. The penetration membranes were soaked in phosphate buffer saline (PBS), were sealed in a bag, and were frozen for future use.
(2) Before experiment, the penetration membranes were unfrozen in PBS to room temperature such that the gaps between the keratinocyte cells returned to their natural state. The penetration membranes were fixed in a Franz-type diffusion cell (see FIG. 2). The diffusion area was 0.636 cm^2. To test the skin integrity, the upper and lower sections of the diffusion cell were filled with 50% ethanol+50% PBS. After removing bubbles from the lower chamber, a sample of 0.5 g was placed into the upper, donor cell, and 50% ethanol+50% PBS was placed into the lower, receptor cell having a volume of 5.3 mL. A thermostat water tank heater was used to control the water temperature to be 35° C.±1. Stirring was carried out by using a magnet to balance the drug concentration distribution in the receptor cell.
(3) Each experiment used 5 diffusion cells to obtain the average value. 50 μL was sampled from the receptor cell and analyzed by HPLC. The same amount of a physiological solution was filled back into the receptor cell to maintain the total volume in the receptor cell.
(4) The injected volume was 50 μL. The detection wavelength was 260 nm. A mixture of 88% methanol, 11% water, and 1% acetic acid was used as the mobile phase in isocratic elution. The flow rate of the mobile phase was 1.0 mL/min. OMC of 1 ppm, 10 ppm, 50 ppm, and 100 ppm and avobenzone standard solution were used to create a calibration curve. Each concentration was detected three times to obtain the average value. Peak-ABC Chromatography Data Handling System (manufactured by Great Tide Instruments, Taiwan) was used to capture and handle the signals. A sample of 50 μL was sampled from the receptor cell and analyzed by HPLC. Peak-ABC Chromatography Data Handling System was used to analyze the concentration for calculating the lag time and the flux.
The Franz-type diffusion cell system was used to assess the penetration characteristics of carrier-entrapped filters. […] The stratum corneum is an important barrier of the skin for resisting alien objects and is also a hindrance to transdermal delivery of an active constituent. During an initial stage of passage from the donor site to the receptor site through the skin, there is a lag time for the active constituent to penetrate the membrane of the saturated skin. After that, the active constituent remains in steady-state diffusion for a period of time during which the diffusion flux is not changed.
Assume the concentrations of the active constituent at the donor site and the receptor site of the penetration membrane are respectively Cv and Cr, the mechanism of initial transdermal absorption can be explained by Fick's first law of diffusion: J=dQ/Dt=DAK(Cv−Cr)/h
wherein J is the transdermal flux, Q is the cumulative penetration amount, D is the diffusion coefficient, A is the diffusional surface area, K is the partition coefficient, and h is the diffusional pathlength.
Since Cr is very small at the initial stage of penetration, DC=(Cv−Cr) arrpoximates Cv. The transdermal flux is in proportion to the concentration difference ([…]). Thus, the slope of an optimal line in a diagram obtained from the cumulative penetration quantity Q and the penetration time t is the transdermal flux J. The lag time parameter can be obtained by linear extrapolation to the intersection on X axis. […]

Row | Amount in receptor site (0 h) | Transdermal flux (%) (0 h) | lag time | Amount in receptor site (0.5 h) | Transdermal flux (%) (0.5 h) | Amount in receptor site (1 h) | Transdermal flux (%) (1 h) | Amount in receptor site (2 h) | Transdermal flux (%) (2 h) | Amount in receptor site (3 h) | Transdermal flux (%) (3 h) | transdermal flux (4 h) | Amount in receptor site (6 h) | Transdermal flux (%) (6 h) | transdermal flux (6 h) | Structure (SMILES)
1 | 0 μg/cm^2 | 0% | 0.15 h | 0 μg/cm^2 | 0% | 31.84 ± 1.81 μg/cm^2 | 0.13 ± 0.01% | 65.15 ± 7.96 μg/cm^2 | 0.28 ± 0.03% | 121.97 ± 4.95 μg/cm^2 | 0.52 ± 0.02% | 40.069 μg/cm^2·hr | 227.55 ± 12.94 μg/cm^2 | 0.96 ± 0.05% |  | CCCCC(CC)COC(=O)C=Cc1ccc(OC)cc1 (stereo not shown) [OMC, octyl methoxycinnamate]
2 | 0 μg/cm^2 | 0% | 0.23 h | 0 μg/cm^2 | 0% | 20.12 ± 2.19 μg/cm^2 | 0.09 ± 0.01% | 48.21 ± 2.73 μg/cm^2 | 0.20 ± 0.01% | 84.85 ± 4.27 μg/cm^2 | 0.36 ± 0.02% |  | 161.26 ± 3.74 μg/cm^2 | 0.68 ± 0.02% | 28.237 μg/cm^2·hr | COc1ccc(C(=O)CC(=O)c2ccc(C(C)(C)C)cc2)cc1 [avobenzone]
